Measured values taken from ChEMBL document CHEMBL3272311, “Syntheses and pharmacological activity of substituted imidazolidinethiones and thiomidazolines” (J Med Chem, 1977).
Active and inactive are the calls of the source. The calls are words filed in the database; no cut-off is given here.

Columns and labels:
[1] = Toxicity in ip dosed Swiss-Webster mouse after 24 hrs; format: organism-based; details: in vivo
[2] = test system: Mus musculus; test: Anticonvulsant activity against pentylenetetrazole-induced seizure in Swiss-Webster mouse assessed as prolongation of time for onset of convulsion at 50 to 200 mg/kg, ip relative to control; format: functional
[3] = test system: Mus musculus; test: CNS depressant activity in Swiss-Webster mouse assessed as forced motor activity at 50 to 200 mg/kg, ip by rotarod assay relative to control; format: functional; details: dose mg/kg 50-200; route intraperitoneal
[4] = test system: Mus musculus; test: Anticonvulsant activity against maximal electroshock-induced seizure in Swiss-Webster mouse assessed as prolongation of time for onset of convulsion at 50 to 200 mg/kg, ip relative to control; format: functional; details: dose mg/kg 50-200; route intraperitoneal
[5] = test system: Mus musculus; test: CNS depressant activity in Swiss-Webster mouse assessed as spontaneous motor activity at 50 to 200 mg/kg, ip by rotarod assay relative to control; format: functional; details: dose mg/kg 50-200; route intraperitoneal
[6] = test system: Rattus norvegicus; test: Toxicity in Wistar rat assessed as decrease in heart rate at 50 to 200 mg/kg, ip; format: organism-based; design: dose 50-200 mg/kg, route intraperitoneal; details: in vivo
[7] = test system: Rattus norvegicus; test: Toxicity in Wistar rat assessed as decrease in body temperature at 50 to 200 mg/kg, ip; format: organism-based; design: dose 50-200 mg/kg, route intraperitoneal; details: in vivo
[8] = test system: Rattus norvegicus; test: Toxicity in Wistar rat assessed as decrease in respiration at 50 to 200 mg/kg, ip; format: organism-based; design: dose 50-200 mg/kg, route intraperitoneal; scale not given: the % may be the effect or the level left; details: in vivo
[9] = test system: Rattus norvegicus; test: Toxicity in Wistar rat assessed as marked ptosis at 50 to 200 mg/kg, ip; format: organism-based; design: dose 50-200 mg/kg, route intraperitoneal; details: in vivo
[10] = test system: Mus musculus; test: Anticonvulsant activity against strychnine-induced seizure in Swiss-Webster mouse assessed as prolongation of time for onset of convulsion at 50 to 200 mg/kg, ip relative to control; format: functional; details: dose mg/kg 50-200; route intraperitoneal
[11] = test system: Mus musculus; test: CNS depressant activity in ip dosed Swiss-Webster mouse assessed as spontaneous motor activity by rotarod assay; format: functional
[12] = test system: Mus musculus; test: Anticonvulsant activity in Swiss-Webster mouse assessed as protection against strychnine-induced seizure at 10 to 20 mg/kg, ip; format: functional, organism-based
[13] = test system: Mus musculus; test: Anticonvulsant activity in Swiss-Webster mouse assessed as protection against pentylenetetrazole-induced seizure at 10 to 20 mg/kg, ip; format: functional, organism-based
[14] = test system: Mus musculus; test: Safety index, ratio of LD50 for toxicity in Swiss-Webster mouse to ED50 for CNS depressant activity in ip dosed Swiss-Webster by rotarod assay; format: functional
[15] = test system: Rattus norvegicus; test: Toxicity in Wistar rat assessed as decrease in body temperature at 5 to 15 mg/kg, ip; format: organism-based; design: dose 5-15 mg/kg, route intraperitoneal; details: in vivo
[16] = test system: Rattus norvegicus; test: Toxicity in Wistar rat assessed as marked ptosis at 5 to 15 mg/kg, ip; format: organism-based; design: dose 5-15 mg/kg, route intraperitoneal; details: in vivo
[17] = test system: Rattus norvegicus; test: Toxicity in Wistar rat assessed as decrease in heart rate at 5 to 15 mg/kg, ip; format: organism-based; design: dose 5-15 mg/kg, route intraperitoneal; details: in vivo
[18] = test system: Rattus norvegicus; test: Toxicity in Wistar rat assessed as decrease in respiration at 5 to 15 mg/kg, ip; format: organism-based; design: dose 5-15 mg/kg, route intraperitoneal; scale not given: the % may be the effect or the level left; details: in vivo

For COC(=O)N1CCN=C1SCC(=O)c1ccccc1, the LD50 at 24 h [1] was > 1000 mg/kg, the Activity ([2]; dose mg/kg 50-200, route intraperitoneal) was 134% and the “inhibition (INH)” value [3] was 40%. For the same compound, the Activity [4] was 75% and the “inhibition (INH)” value [5] was 85%.
In the case of CSC1=NCCN1C(C)=O, the LD50 at 24 h [1] is reported as > 1000 mg/kg, the Activity [6] is reported as 25 bpm and the Activity [2] is reported as “Active”. The T [7] was 3 °C, the Activity [8] was 50% and the Activity [9] was “Toxic”. The Activity [10] was 48%, the ED50 [11] was 150 mg/kg and the Activity [4] was 90%.
For O=C1NC(=O)C(c2ccccc2)(c2ccccc2)N1 [PHENYTOIN], the Activity [12] was “inactive”, the Activity [13] was “inactive” and the ED50 [11] was 10.7 mg/kg.
For CC(=O)N1CCN(C)C1=S, the LD50 at 24 h [1] was 40 mg/kg and the “Ratio LD50/ED50” value [14] was 0.5.
For COC(=O)N1CCN(C)C1=S, the T [15] was 1 °C, the LD50 at 24 h [1] was 25 mg/kg and the Activity [16] was “Non-toxic”. The Activity [17] was 8 bpm, the ED50 [11] was 18 mg/kg and the Activity [18] was 20%.
With COC(=O)N1CCN=C1SC the LD50 at 24 h [1] was > 1000 mg/kg, the Activity [2] was “Active” and the Activity [4] was 106%. The “Ratio LD50/ED50” value [14] was 16.1.
